For assay [1], the target named is T1, AhR (Homo sapiens, UniProt P35869).
T1 sequence (P35869 11-848): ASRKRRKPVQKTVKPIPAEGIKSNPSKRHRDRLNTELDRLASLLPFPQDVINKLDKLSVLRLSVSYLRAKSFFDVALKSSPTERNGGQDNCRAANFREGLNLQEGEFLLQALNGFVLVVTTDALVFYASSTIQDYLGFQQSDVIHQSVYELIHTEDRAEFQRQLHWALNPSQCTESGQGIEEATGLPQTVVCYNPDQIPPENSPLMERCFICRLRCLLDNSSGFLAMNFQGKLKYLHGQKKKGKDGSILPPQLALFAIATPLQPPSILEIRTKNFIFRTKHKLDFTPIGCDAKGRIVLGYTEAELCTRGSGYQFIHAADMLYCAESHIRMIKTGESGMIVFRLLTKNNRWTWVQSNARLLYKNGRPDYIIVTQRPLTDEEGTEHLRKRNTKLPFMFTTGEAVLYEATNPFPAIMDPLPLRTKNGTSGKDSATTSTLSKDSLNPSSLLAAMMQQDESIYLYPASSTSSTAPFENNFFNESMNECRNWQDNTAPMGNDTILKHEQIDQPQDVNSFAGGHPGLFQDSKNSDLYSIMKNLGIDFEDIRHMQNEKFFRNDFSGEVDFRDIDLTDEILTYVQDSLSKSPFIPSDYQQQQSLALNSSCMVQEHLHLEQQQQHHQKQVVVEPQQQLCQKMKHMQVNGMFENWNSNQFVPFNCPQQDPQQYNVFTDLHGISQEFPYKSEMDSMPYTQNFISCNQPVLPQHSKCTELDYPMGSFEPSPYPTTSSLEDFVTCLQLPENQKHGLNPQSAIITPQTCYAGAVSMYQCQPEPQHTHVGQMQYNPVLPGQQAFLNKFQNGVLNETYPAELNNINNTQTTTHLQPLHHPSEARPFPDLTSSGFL
Put plainly: AhR antagonism in human PBMCs - inhibition of IL-22 release. The format is cell-based. Also noted: endogenous in cells. Particulars: human PBMCs activated with CD3/CD28 agonist mixture, 72 hrs, IL-22 ELISA; average; read-out: hPBMC Inhibition of CD3/CD28 induced IL-22 release: av. pIC50 (converted). The text has this:
In Vitro Assay 3: AhR Antagonism in Human Peripheral Blood Mononuclear Cells (PBMCs)-Inhibition of Interleukin-22 (IL-22) Release.
PBMCs were isolated from human peripheral blood using Lymphoprep™ and diluted to 1×10^6 cells per ml in RPMI media containing […] foetal bovine serum, 1% penicillin-streptomycin and 1% non essential amino acids. PBMCs were subsequently activated with 1p1 per 100,000 cells of a CD3/CD28 agonist mixture (human T Cell TransAct™ (Miltenyi Biotec)) and then plated at 100,000 cells per well in a round bottom 96 well tissue culture plate. One hour after stimulation seven concentrations of each test compound or vehicle (final [DMSO] 0.2%) were added. The plates were then placed in an incubator at 37° C., ≥85% humidity, 5% […] for 72 hrs before the media was removed and stored at −20° C. until cytokine analysis. IL-22 was measured using human IL-22 DuoSet ELISA (R&D systems) according to the manufacturer's instructions.

The target in assay [2] is T1, AhR. Put plainly: AhR antagonism in U937 cells (Promega P450-Glo assay). The format is cell-based. Also noted: endogenous in cells; host or cells: U937 cells. To be noted: CYP1A1 activity readout (Luciferin-CEE), head names VAF347, average, read-out: U937 Antagonist pIC50-VAF347: av. pIC50 (converted). On the procedure: In Vitro Assay 1: AhR Antagonism in U937 Cells (Promega P450-Glo™ Assay)
AhR antagonism was assessed in LJ937 cells (myeloid lineage cell line derived from a human histiocytic lymphoma). Ligand binds the AhR in the cytoplasm, and the AhR-ligand complex translocates to the nucleus and forms a heterodimer with AhR nuclear translocator (Arnt). This complex binds the xenobiotic response element (XRE) in the 5′ upstream region of the CYP1A1 promoter, enhancing CYP1A1 expression. CYP1A1 activity is subsequently determined by assessing the conversion of Luciferin-CEE to luciferin, which in turn reacts with luciferase to produce light. The amount of light produced is directly proportional to cytochrome P450 activity. U937 cells in Ultraculture serum free media (Lonza) were plated at 100,000 cells per well in a round bottom 96 well tissue culture plate. […] The plates were then placed in an incubator at 37° C., ≥85% humidity, 5% CO2 for 24 hrs. After aspiration of the supernatant the CYP1A1 substrate Luciferin-CEE ([Final] 83 μM) was added and incubated for 3 hrs before the reaction was stopped by adding luciferin detection reagent and luminescence was read after 20 minutes.

In the case of `Fc1cncc(-c2nc3c(c(NCCc4c[nH]c5ccccc45)n2)OCCN3)c1` [Example 1, 2-(5-fluoro-3-pyridyl)-N-[2-(1H-indol-3-yl)ethyl]-7,8-dihydro-6H-pyrimido[5,4-b][1,4]oxazin-4-amine], the IC50 at AhR [1] is 1.91 nM; at AhR [2] it was 0.724 nM.

In the case of `Fc1ccc(-c2nc3c(c(NCCc4c[nH]c5ccccc45)n2)OCCN3)cc1` [Example 2, 2-(4-fluorophenyl)-N-[2-(1H-indol-3-yl)ethyl]-7,8-dihydro-6H-pyrimido[5,4-b][1,4]oxazin-4-amine], the IC50 on AhR [1] was 56.2 nM; on AhR [2], 25.1 nM.

As for `Fc1cc(F)cc(-c2nc3c(c(NCCc4c[nH]c5ccccc45)n2)OCCN3)c1` [Example 3, 2-(3,5-difluorophenyl)-N-[2-(1H-indol-3-yl)ethyl]-7,8-dihydro-6H-pyrimido[5,4-b][1,4]oxazin-4-amine], the IC50 on AhR [1] is 3.98 nM; on AhR [2] it was 3.55 nM.

On to `Fc1cncc(-c2nc3c(c(N[C@@H]4CCc5[nH]c6ccccc6c5C4)n2)OCCN3)c1` [Example 4, 2-(5-fluoro-3-pyridyl)-N-[(3R)-2,3,4,9-tetrahydro-1H-carbazol-3-yl]-7,8-dihydro-6H-pyrimido[5,4-b][1,4]oxazin-4-amine], for which the IC50 was 83.2 nM at AhR [1] and 16.2 nM on AhR [2].

As for `CC1COc2c(NCCc3c[nH]c4ccccc34)nc(-c3cncc(F)c3)nc2N1` (stereo not drawn) [Example 5, 2-(5-fluoro-3-pyridyl)-N-[2-(1H-indol-3-yl)ethyl]-7-methyl-7,8-dihydro-6H-pyrimido[5,4-b][1,4]oxazin-4-amine], the IC50 was 0.955 nM on AhR [1] and 1.86 nM at AhR [2].

For the compound `CC(C)N1CCOc2c(NCCc3c[nH]c4ccccc34)nc(-c3cncc(F)c3)nc21` [Example 6, 2-(5-fluoro-3-pyridyl)-N-[2-(1H-indol-3-yl)ethyl]-8-isopropyl-6,7-dihydropyrimido[5,4-b][1,4]oxazin-4-amine], the IC50 on AhR [1] was 1.35 nM; at AhR [2], 7.76 nM.

In the case of `Cc1ncc(-c2nc3c(c(NCCc4c[nH]c5ccccc45)n2)OCCN3)s1` [Example 7, N-[2-(1H-indol-3-yl)ethyl]-2-(2-methylthiazol-5-yl)-7,8-dihydro-6H-pyrimido[5,4-b][1,4]oxazin-4-amine], the results for the IC50 on AhR [1] and at AhR [2] were 9.55 nM and 9.12 nM, respectively.

Take `C[C@H]1COc2c(NCCc3c[nH]c4ccccc34)nc(-c3cncc(F)c3)nc2N1` [Example 8, (7S)-2-(5-fluoro-3-pyridyl)-N-[2-(1H-indol-3-yl)ethyl]-7-methyl-7,8-dihydro-6H-pyrimido[5,4-b][1,4]oxazin-4-amine]: the IC50 at AhR [1] was 1.05 nM; on AhR [2] it was 1.12 nM.

Regarding `C[C@@H]1COc2c(NCCc3c[nH]c4ccccc34)nc(-c3cncc(F)c3)nc2N1` [Example 9, (7R)-2-(5-fluoro-3-pyridyl)-N-[2-(1H-indol-3-yl)ethyl]-7-methyl-7,8-dihydro-6H-pyrimido[5,4-b][1,4]oxazin-4-amine], the results for the IC50 at AhR [1] and on AhR [2] were 0.661 nM and 0.513 nM, respectively.

As for `Cc1ncsc1-c1nc2c(c(NCCc3c[nH]c4ccccc34)n1)OCCN2` [Example 10, N-[2-(1H-indol-3-yl)ethyl]-2-(4-methylthiazol-5-yl)-7,8-dihydro-6H-pyrimido[5,4-b][1,4]oxazin-4-amine], the IC50 at AhR [1] is 8.13 nM; on AhR [2], 4.57 nM.

For the compound `Cc1ncc(-c2nc3c(c(N(CCO)CCc4c[nH]c5ccccc45)n2)OCCN3)s1` [Example 11, 2-[2-(1H-indol-3-yl)ethyl-[2-(2-methylthiazol-5-yl)-7,8-dihydro-6H-pyrimido[5,4-b][1,4]oxazin-4-yl]amino]ethanol], the IC50 is 525 nM at AhR [1] and 91.2 nM at AhR [2].

`CCc1nc(C)c(-c2nc3c(c(NCCc4c[nH]c5ccccc45)n2)OCCN3)s1` [Example 12, 2-(2-ethyl-4-methyl-thiazol-5-yl)-N-[2-(1H-indol-3-yl)ethyl]-7,8-dihydro-6H-pyrimido[5,4-b][1,4]oxazin-4-amine]: the results for the IC50 on AhR [1] and on AhR [2] were 141 nM and 89.1 nM, respectively.

In the case of `c1ccc2c3c([nH]c2c1)CC[C@@H](Nc1nc(-c2nccs2)nc2c1OCCN2)C3` [Example 13, N-[(3R)-2,3,4,9-tetrahydro-1H-carbazol-3-yl]-2-thiazol-2-yl-7,8-dihydro-6H-pyrimido[5,4-b][1,4]oxazin-4-amine], the IC50 at AhR [1] is more than 1780 nM; at AhR [2] it was 229 nM.

As for `Cc1ncc(-c2nc3c(c(NC4Cc5cccc6[nH]cc(c56)C4)n2)OCCN3)s1` (stereo not drawn) [Example 14, 2-(2-methylthiazol-5-yl)-N-(1,3,4,5-tetrahydrobenzo[cd]indol-4-yl)-7,8-dihydro-6H-pyrimido[5,4-b][1,4]oxazin-4-amine], the values for the IC50 at AhR [1] and on AhR [2] were 100 nM and 74.1 nM, respectively.

Turning to `O=c1[nH]cccc1-c1nc2c(c(NCCc3c[nH]c4ccccc34)n1)OCCN2` [Example 17, 3-[4-[2-(1H-indol-3-yl)ethylamino]-7,8-dihydro-6H-pyrimido[5,4-b][1,4]oxazin-2-yl]-1H-pyridin-2-one], the IC50 at AhR [1] is 1.66 nM; at AhR [2], 3.8 nM.

In the case of `Cn1cccc(-c2nc3c(c(NCCc4c[nH]c5ccccc45)n2)OCCN3)c1=O` [Example 19, 3-[4-[2-(1H-indol-3-yl)ethylamino]-7,8-dihydro-6H-pyrimido[5,4-b][1,4]oxazin-2-yl]-1-methyl-pyridin-2-one], the IC50 on AhR [1] was 24.5 nM; on AhR [2], 51.3 nM.

In the case of `Cc1ccc(-c2nc3c(c(NCCc4c[nH]c5cc(F)ccc45)n2)OCCN3)cn1` [Example 20, N-[2-(6-fluoro-1H-indol-3-yl)ethyl]-2-(6-methyl-3-pyridyl)-7,8-dihydro-6H-pyrimido[5,4-b][1,4]oxazin-4-amine], the IC50 was 43.7 nM at AhR [1] and 91.2 nM on AhR [2].

Take `O=c1[nH]cccc1-c1nc2c(c(NCCc3c[nH]c4cc(F)ccc34)n1)OCCN2` [Example 21, 3-[4-[2-(6-fluoro-1H-indol-3-yl)ethylamino]-7,8-dihydro-6H-pyrimido[5,4-b][1,4]oxazin-2-yl]-1H-pyridin-2-one]: the figures for the IC50 on AhR [1] and on AhR [2] were 1.45 nM and 2.75 nM, respectively.

In the case of `FC(F)Oc1ncccc1-c1nc2c(c(NCCc3c[nH]c4ccccc34)n1)OCCN2` [Example 22, 2-[2-(difluoromethoxy)-3-pyridyl]-N-[2-(1H-indol-3-yl)ethyl]-7,8-dihydro-6H-pyrimido[5,4-b][1,4]oxazin-4-amine], the IC50 is more than 2000 nM at AhR [1] and 123 nM on AhR [2].

As to `Cc1ncc(-c2nc3c(c(OCCc4c[nH]c5cc(F)ccc45)n2)OCCN3)s1` [Example 24, 4-[2-(6-fluoro-1H-indol-3-yl)ethoxy]-2-(2-methylthiazol-5-yl)-7,8-dihydro-6H-pyrimido[5,4-b][1,4]oxazine], the IC50 on AhR [1] is 2.88 nM; on AhR [2], 2.63 nM.

Consider `COC[C@@H]1COc2c(NCCc3c[nH]c4ccccc34)nc(-c3ccc[nH]c3=O)nc2N1` [Example 26, (R)-3-(4-((2-(1H-indol-3-yl)ethyl)amino)-7-(methoxymethyl)-7,8-dihydro-6H-pyrimido[5,4-b][1,4]oxazin-2-yl)pyridin-2(1H)-one], for which the IC50 is 0.724 nM at AhR [1] and 4.79 nM on AhR [2].

Source of the values: US20250129092A1, “COMPOUNDS USEFUL IN MODULATION OF AHR SIGNALLING” (JAGUAHR THERAPEUTICS PTE LTD, priority 2021, published 2025).
